Test results reported in patent US6841549B1, “Condensed imidazole compounds and a therapeutic agent for diabetes mellitus” (Eisai Co., Ltd., priority 1999, dated 2005).
Where a name gives a salt, the structure may show the parent alone.

Assays:
[1] = biological target: T1, Human adenosine A2b receptor (Homo sapiens, UniProt P29275); test: Inhibition of NECA-stimulated cAMP production in receptor-expressing CHOK1 cells; format: cell-based; conditions: CHOK1 cells over-expressing human A2b receptor, NECA 30 nM
T1 construct: expressed in transfected cells; host or cells: CHOK1 cells
T1 sequence (P29275 1-332): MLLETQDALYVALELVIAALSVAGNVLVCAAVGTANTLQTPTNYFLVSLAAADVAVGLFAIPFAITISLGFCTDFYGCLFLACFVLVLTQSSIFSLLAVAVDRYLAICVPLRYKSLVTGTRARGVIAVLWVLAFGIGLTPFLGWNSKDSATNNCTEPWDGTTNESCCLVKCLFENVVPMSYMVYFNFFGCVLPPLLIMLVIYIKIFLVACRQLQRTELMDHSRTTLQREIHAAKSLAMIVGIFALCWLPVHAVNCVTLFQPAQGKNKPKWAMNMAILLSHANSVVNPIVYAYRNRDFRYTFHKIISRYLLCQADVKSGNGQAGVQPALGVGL
Experimental: Human adenosine A2b receptor cDNA was over-expressed in CHOK1 cells. The cells were uniformly placed on a 24-well plate at a density of 1.5×10^5cells/well, incubated overnight and then used for the assays. Affinity of the test compound for the A2b receptor was evaluated by using, as an index, the rate of suppression of the amount of cAMP produced by stimulation of an adenosine agonist NECA (30 nM) in the presence of the test compound. Thus, the plate was washed twice with 2 ml/well of Krebs-Ringer-Bicarbonate buffer (KRB) (mM) (NaCl 118, KCl 4.8, KH2PO4 1.2, MgSO4 1.2, CaCl2 3.4, HEPES 10, NaHCO3 25, pH 7.4) and then pre-incubated (0.5 ml/well) for 30 minutes. Thereafter, a mixed solution containing 600 μM Ro-20-1724 (phosphodiesterase inhibitor), 180 nM NECA, and a test compound at a concentration 6-times higher than in the reaction solution was added in an amount of […]. After 15 minutes, the reaction was stopped by replacing the reaction solution by 0.1 N HCl (300 μl/well). Measurement of cAMP was carried out using an Amersham cAMP EIA Kit.
The rate of inhibition of NECA-stimulated cAMP production by the test compound was calculated using the following equation: Rate of Inhibition (%)=[1−{(cAMP amount in the presence of NECA and test compound-Basal cAMP amount)/(cAMP amount stimulated only by NECA−Basal cAMP amount)}]×100.
IC50 was calculated from the rate of inhibition.

[2] = biological target: T2, adenosine A2a receptor (Homo sapiens, UniProt P29274); test: Adenosine A2a receptor binding assay (3H-CGS21680); conditions: 3H-CGS21680 binding, membrane over-expressing A2a receptor, Cheng-Prusoff; read-out: inhibition constant (Ki value)
T2 construct: purchased Receptor Biology Inc
T2 sequence (P29274 whole entry): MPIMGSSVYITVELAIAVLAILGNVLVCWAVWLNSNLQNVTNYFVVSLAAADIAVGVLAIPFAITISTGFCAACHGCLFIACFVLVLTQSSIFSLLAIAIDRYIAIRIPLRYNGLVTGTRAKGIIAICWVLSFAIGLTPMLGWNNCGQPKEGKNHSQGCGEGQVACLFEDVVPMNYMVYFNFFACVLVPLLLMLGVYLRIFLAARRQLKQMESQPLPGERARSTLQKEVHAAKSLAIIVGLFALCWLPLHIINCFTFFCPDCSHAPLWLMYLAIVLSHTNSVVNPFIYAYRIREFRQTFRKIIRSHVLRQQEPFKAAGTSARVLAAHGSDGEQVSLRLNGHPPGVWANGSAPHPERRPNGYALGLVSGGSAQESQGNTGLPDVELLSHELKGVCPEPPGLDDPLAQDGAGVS
Experimental: A membrane specimen prepared by over-expression of adenosine A2a receptor was purchased from Receptor Biology Inc., and used to carry out adenosine A2a receptor binding assays. The purchased membrane specimen was suspended at a concentration of 22.2 μg/ml inan incubation buffer (20 mM HEPES, 10 mm MgCl2 and 100 mM NaCl, pH 7.4). To 0.45 ml of this membrane specimen were added 0.25ml of tritium-labeled^3H-CGS21680 (500 nM; 30 Ci/mmol) and 0.025 ml of the test compound. The solution of the test compound was prepared by dissolving the compound at a concentration of 20 mM in DMSO and then successively diluting the solution 10-fold with the incubation buffer. […] Thereafter, the glass fiber filter was transferred to a vial bottle, a scintillator was added thereto, and the radioactivity on the filter was measured by a liquid scintillation counter. The rate of inhibition of (^3H-CGS21680) binding to the A2a receptor by the test compound was calculated using the following equation, and from this rate of inhibition, IC50 was calculated. […]
The total binding amount is ^3H-CGS21680 binding radioactivity in the absence of the test compound. The non-specific binding amount is ^3H-CGS21680 binding radioactivity in the presence of […] of RPIA. The binding amount in the presence of drug is ^3H-CGS21680 binding radioactivity in the presence of the test compound of various concentrations. […]

[3] = test system: primary cultured rat hepatic cells; test: Inhibition of NECA-stimulated glucose production in primary cultured rat hepatic cells; format: cell-based; conditions: primary cultured Wistar rat hepatic cells, NECA 0.1, 1 hour; read-out: IC50 for inhibition of NECA-stimulated glucose release
Experimental: Hepatic cells were separated by a collagenase perfusion method from livers of male rats of Wistar strain and subjected to a primary culture in a William's Medium E containing 5% calf serum, 10^−6 M insulin and 10^−7 M dexamethasone. After 1 day, the hepatic cells were washed with a Krebs-Ringer Bicarbonate buffer (mM) (NaCl 118, KCl 4.8, KH2PO4 1.2, MgSO4 1.2, CaCl2 3.4, HEPES 10, NaHCO3 25) pH 7.4 (KRB) containing 10 mM HEPES and 0.1% bovine serum albumin and KRB was added thereto, then incubated at 37° C. After 30 minutes, NECA (N-ethylcarboxamide adenosine) (final concentration: […]) and a test compound were added thereto at the same time, the mixture was incubated for additional one hour, and the amount of glucose released into the incubation medium was measured.

[4] = test system: spontaneously diabetic mice (KK-Ay/Ta Jcl); test: Action on hyperglycemia in spontaneously diabetic mice (single administration); format: in vivo; conditions: male KK-Ay/Ta Jcl mice, 10 mg/kg oral, p < 0.01 vs. control (72.5 ± 3.7)
Experimental: Animals: Seven male KK-A^y/Ta Jcl mice for each group (purchased from Nippon Clair) Preparation and Administration of Test Compound: A test compound in a dose as shown in Table 1 was suspended in 0.5% aqueous methyl cellulose solution and was orally administered in a volume of 10 ml/kg. Collection of Blood Samples and Determination of Blood Sugar: Blood was collected from tail veins just before administration of the test compound and also 5 hours after the administration and blood sugar was determined. Method: Tail vein of a mouse was injured by a razor without anesthetization to bleed slightly. The blood (15 μl) was collected and immediately mixed with 135 μl of 0.6 M perchloric acid. Glucose in the supernatant separated by centrifugation (at 1500 g for10 minutes at 4° C. usingacooling centrifuge GS-6KR from Beckmann) was determined by Glucose CII Test Wako (Wako Pure Chemicals). The results are shown in terms of “(% ratio of blood sugar 5 hours after the administration to the blood sugar before the administration)±(standard error)”. The data were subjected to one-way layout analysis of variance and then subjected to multiple comparison of Dunnett type. Difference with p<0.05 was deemed significant.

IC50 [1] [nM]	Ki [2] [nM]	IC50 [3] [nM]	Structure (SMILES)	% ratio of blood sugar 5 hours after the administration to the blood sugar before the administration ± standard error [4] [%]
11	3.2	7.6	Cl.Cn1cc(-n2c(-c3cccc(F)c3)nc3c(N)ncnc32)ccc1=O [Example 5, 5-[6-Amino-8-(3-fluorophenyl)-9H-9-purinyl]-1-methyl-1,2-dihydro-2-pyridinone hdrochloride]	47.3 ± 7.2
–	9.6	8.4	C=CCn1c(-c2cccc(F)c2)nc2c(N)nc(C#CC3(O)CCC3)nc21 [Example 20, 1-{2-[9-Allyl-6-amino-8-(3-fIuorophenyl)-9H-2-purinyl]-1-ethynyl]}-1-cyclobutanol hydrochloride]	–
